Test results from patent publication US10703761B2, “Bile acid receptor modulators and methods of use thereof” (City of Hope, priority 2016, dated 2020).
pEC50: −log10 of the molar value. “Also recorded” adds a separate entry of the source.

How the values were obtained:
[1] = in vivo; cited from earlier work
TGR5 = biological target: T1, TGR5 (Homo sapiens, UniProt Q8TDU6); test: TGR5 luciferase reporter (pCRE-luc) / cAMP assay in HEK293 cells overexpressing TGR5; format: cell-based
T1 construct: expressed in transfected cells
T1 sequence (Q8TDU6 1-330): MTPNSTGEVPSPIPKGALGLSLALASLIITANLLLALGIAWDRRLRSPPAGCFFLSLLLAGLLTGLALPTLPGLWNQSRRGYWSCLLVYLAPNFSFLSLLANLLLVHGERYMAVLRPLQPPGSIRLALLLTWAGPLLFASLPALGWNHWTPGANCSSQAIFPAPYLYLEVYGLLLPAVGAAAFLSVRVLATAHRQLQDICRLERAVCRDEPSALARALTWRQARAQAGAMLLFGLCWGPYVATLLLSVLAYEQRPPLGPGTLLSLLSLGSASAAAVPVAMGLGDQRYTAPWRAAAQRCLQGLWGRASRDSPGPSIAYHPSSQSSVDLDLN
Description: FIG. 1(A-C): FIG. 1(A) Chemical structure of berberine. FIG. 1(B) HEK293 cells lacking or stably-overexpressing TGR5 were treated with increasing doses of berberine for 16 h. TGR5-reporting activity was evaluated by luciferase assay (n=8). FIG. 1(C) The ability of berberine to activate TGR5 and FXR was evaluated in comparison to the synthetic FXR agonist GW4064. Ligands were used at a concentration of […] (n=4). Statistical analysis was performed using paired t-test. **p<0.05, ***p<0.001.
FIG. 2(A) HEK293 cells lacking or overexpressing TGR5 were treated with increasing doses of berberine for 16 hours and TGR5-reporting activity was evaluated using luciferase assays. FIG. 2(B) Ability of berberine to activate metabolic nuclear receptors was evaluated in comparison to native ligands. All ligands were used at a 10 μM concentration.
To potentially identify selective TGR5 modulators via a novel strategy, we synthesized and screened a focused chemical compounds library to search for derivatives that have higher affinity and/or higher selectivity to effectively modulate TGR5 activity in vivo. A focused small chemical compound library was evaluated in in vitro TGR5 assays to search for berberine-derived agonists that have higher affinity, potency, and/or higher selectivity for TGR5. The receptor binding assay was performed by measuring the level of cyclic AMP (cAMP) using TR-FRET (time-resolved fluorescence resonance energy transfer) assay. The level of intracellular cAMP was determined with Lance kit (PerkinElmer). Lithocholic acid was used as control ligand. Z′ factor was used to validate assays. Non-linear regression curves, without constraints, was performed by using four parameter equation and GraphPad Prism Software (GraphPad Inc.) to obtain the EC50 values. All drugs tested positive with TR-FRET for TGR5 binding affinities were evaluated in cell-based assays, using HEK293 cells stably over expressing human TGR5 transfected with the cAMP-sensitive reporter plasmid pCRE-Luc. Compounds were initially tested at doses of […] and the relative fold activation on TGR5 was determined. […]

COc1ccc2cc3[n+](cc2c1OC)CCc1cc2c(cc1-3)OCO2 [berberine]
Plasma concentration / gut restriction [1]: keeps low concentration in plasma | TGR5-reporting effect in cells lacking TGR5 (TGR5; HEK293 cells lacking TGR5): lost | TGR5 activation (TGR5; HEK293 cells overexpressing TGR5, 16 h): is a ligand for the G protein-coupled receptor TGR5; also recorded: can activate the bile acid receptor TGR5 | pEC50 (TGR5; unpublished data, read-out: TGR5 agonist EC50): 6.34
